Where “and” joins values, the source holds several entries; their conditions need not be identical. Equal values may be shown once. Read-outs that look alike come from different tables or passages of the source.
How the values were obtained:
[1] = blood collected 30 minutes post injection
Method: Serum Stability Studies. Mice were euthanized, received radiotracer (30 MBq in 100-150 μL formulation) via tail injection, and dissected at dedicated time points post injection. The blood was collected and an aliquot (50 uL) was mixed with CH3CN (50 uL). The serum proteins were precipitated out and followed by a centrifugation (10000 rpm for 5 min). The cleared supernatant (50 uL) was collected and further analyzed by RAD-iTLC.
To confirm stability, blood was collected at 30 minutes post injection, a time point after which specific binding in vivo with (±)—^18F-YJH08 occurred.

[2] = from 90 min dynamic PET in C57B16/J mice
Excerpt: Normal Tissue Radiation Dose Estimation. Volumes of interest (VOIs) were drawn on coregistered CT images for brain, lungs, heart, liver, stomach, kidneys, and urinary bladder. All VOIs were either elliptical cylinder (5 mm long axis, 3 mm short axis, and 5 mm height for the brain), cylinders (3 mm diameter and 3 mm height for kidneys), or spheres (3 mm diameter for lungs, heart, liver, stomach, and urinary bladder), and they were placed well within the anatomical boundaries to minimize spill-over or spill-in of radioactivity. The mean values (in Bq/ml) in these VOIs were multiplied by standard mouse organ volumes (in ml) to estimate total activity (in Bq) within these organs. The total activity within the entire animal subtracted by all organ activities was used as activity in the remainder of the body. The percent of injected activity within the defined organs (% IA) was extrapolated to human-equivalent values using ratios of standard human organ weights to mouse organ weights.
These input % IA data for each organ and the remainder of the body were curve-fitted to derive time-integrated activity coefficients (also known as residence times) (in Bq-hr/Bq) and organ and whole-body effective doses for human equivalents were estimated using each mouse data. The data from the three animals were averaged to derive absorbed organs doses (in mGy/MBq) and whole-body effective dose (in mSv/MBq). Organ and effective dose estimations were performed using OLINDA version 2.0 using ICRP Publication 103 tissue weighting factors.
To explore the potential of (±)-^11C-YJH08 for human translation, a rodent dosimetry study was conducted in male and female C57B16/J mice ([…]). The human equivalent doses for an average adult male (73 kg) or an average adult female (60 kg) were calculated using OLINDA 2.0 incorporating ICRP103 tissue weighting factors based on region of interest analysis from 90 min dynamic PET acquisitions (Table 11). […] The values were calculated from a 90 min dynamic PET acquisition in intact male or female C57B16/J mice.

ER = target: T1, ER (Homo sapiens, UniProt P03372); assay: 3H-ligand displacement assay on cells, ER (MCF7); assay type: binding
T1 construct: MCF7 (PR, ER); endogenous in cells; host or cells: MCF7
T1 sequence (P03372 1-595): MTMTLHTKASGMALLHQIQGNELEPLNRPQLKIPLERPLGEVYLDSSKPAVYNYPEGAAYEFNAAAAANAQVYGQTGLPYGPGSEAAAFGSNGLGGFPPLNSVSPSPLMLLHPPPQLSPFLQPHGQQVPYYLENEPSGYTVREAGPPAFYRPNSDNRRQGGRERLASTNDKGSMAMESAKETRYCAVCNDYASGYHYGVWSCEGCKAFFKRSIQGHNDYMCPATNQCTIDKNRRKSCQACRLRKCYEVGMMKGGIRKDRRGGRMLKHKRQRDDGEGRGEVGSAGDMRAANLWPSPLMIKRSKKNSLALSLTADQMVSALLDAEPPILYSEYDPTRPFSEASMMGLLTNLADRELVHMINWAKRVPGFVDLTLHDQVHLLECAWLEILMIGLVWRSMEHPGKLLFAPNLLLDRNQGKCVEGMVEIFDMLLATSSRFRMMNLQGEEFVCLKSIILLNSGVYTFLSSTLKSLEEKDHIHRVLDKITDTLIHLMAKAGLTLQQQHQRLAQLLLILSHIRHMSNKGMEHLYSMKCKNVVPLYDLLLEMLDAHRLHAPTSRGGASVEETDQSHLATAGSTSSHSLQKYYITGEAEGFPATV
Method: The affinity of YJH08 for GR and the other type 1 subfamily 3 nuclear hormone receptors was evaluated using ^3H-ligand displacement assays on cells. The Kd for subfamily 3 class C nuclear hormone receptors was determined on cells by displacing ^3H-steroidal agonists for the respective receptor. […] The Kd was determined using the following cell lines: DU145 (GR), LNCaP-AR (AR), MCF7 (PR, ER), and HEK293 transiently overexpressing full length human MR.
The cold ligands and ^3H-steroids were co-incubated on cells in PBS at room temperature for one hour. Following incubation, the cells were washed twice with ice cold PBS and the unbound activity was retained for analysis. The cells were lysed with 1 mL of 1M NaOH and collected. Bound and unbound fractions were counted in a liquid scintillation counter and expressed as a percentage of the total activity added per equal relative number of cells. […] These experiments were performed at three concentrations of experimental ligand (1 pM, 100 nM and 10 μM), and a linear extrapolation was used to subtract the non-specific component of binding from each treatment condition. The specific binding component was plotted against the log of the competing ligand and curve fit using a non-linear regression algorithm with PRISM software.

Q: For CC1=CC(C)(C)Nc2ccc3c(c21)C(Cc1ccc(F)cc1)Oc1cccc(O[11CH3])c1-3 (racemic) [(±)-^11C-YJH08], which “radiotracer stable in blood (ITLC)” value [1] is on record?
A: > 90%

Q: And the “Effective Dose (whole-body)” value ([2]; Adult female (60 kg))?
A: 0.0065±0.004 mSv/MBq and 0.00649 ± 0.000433 mSv/MBq

Q: What about the “human equivalent absorbed dose, Adrenals” value ([2]; Adult female (60 kg)) of the same compound?
A: 0.00578 ± 0.000156 mGy/MBq

Q: What about the “human equivalent absorbed dose, Brain” value ([2]; Adult female (60 kg)) of the same compound?
A: 0.00229 ± 0.000078 mGy/MBq

Q: What about the “human equivalent absorbed dose, Breasts” value ([2]; Adult female (60 kg)) of the same compound?
A: 0.00286 ± 0.000129 mGy/MBq

Q: And the “human equivalent absorbed dose, Esophagus” value ([2]; Adult female (60 kg))?
A: 0.00544 ± 0.000439 mGy/MBq

Q: And the “human equivalent absorbed dose, Eyes” value ([2]; Adult female (60 kg))?
A: 0.00223 ± 0.000061 mGy/MBq

Q: And the “human equivalent absorbed dose, Gallbladder Wall” value ([2]; Adult female (60 kg))?
A: 0.00459 ± 0.000041 mGy/MBq

Q: And the “human equivalent absorbed dose, Heart Wall” value ([2]; Adult female (60 kg))?
A: 0.0257 ± 0.005677 mGy/MBq

Q: What about the “human equivalent absorbed dose, Kidneys” value ([2]; Adult female (60 kg)) of the same compound?
A: 0.00785 ± 0.001344 mGy/MBq

Q: What about the “human equivalent absorbed dose, Left colon” value ([2]; Adult female (60 kg)) of the same compound?
A: 0.00437 ± 0.000314 mGy/MBq

Q: What about the “human equivalent absorbed dose, Liver” value ([2]; Adult female (60 kg)) of the same compound?
A: 0.01863 ± 0.001258 mGy/MBq

Q: What about the “human equivalent absorbed dose, Lungs” value ([2]; Adult female (60 kg)) of the same compound?
A: 0.00909 ± 0.000339 mGy/MBq

Q: And the “human equivalent absorbed dose, Osteogenic Cells” value ([2]; Adult female (60 kg))?
A: 0.00217 ± 0.000069 mGy/MBq

Q: What about the “human equivalent absorbed dose, Ovaries” value ([2]; Adult female (60 kg)) of the same compound?
A: 0.00288 ± 0.000090 mGy/MBq

Q: And the “human equivalent absorbed dose, Pancreas” value ([2]; Adult female (60 kg))?
A: 0.00545 ± 0.000182 mGy/MBq

Q: And the “human equivalent absorbed dose, Rectum” value ([2]; Adult female (60 kg))?
A: 0.0028 ± 0.000087 mGy/MBq

Q: What about the “human equivalent absorbed dose, Red Marrow” value ([2]; Adult female (60 kg)) of the same compound?
A: 0.00289 ± 0.000101 mGy/MBq

Q: What about the “human equivalent absorbed dose, Right colon” value ([2]; Adult female (60 kg)) of the same compound?
A: 0.00339 ± 0.000070 mGy/MBq

Q: And the “human equivalent absorbed dose, Salivary Glands” value ([2]; Adult female (60 kg))?
A: 0.00241 ± 0.000068 mGy/MBq

Q: And the “human equivalent absorbed dose, Small Intestine” value ([2]; Adult female (60 kg))?
A: 0.00325 ± 0.000114 mGy/MBq

Q: What about the “human equivalent absorbed dose, Spleen” value ([2]; Adult female (60 kg)) of the same compound?
A: 0.00432 ± 0.0003 mGy/MBq

Q: What about the “human equivalent absorbed dose, Stomach Wall” value ([2]; Adult female (60 kg)) of the same compound?
A: 0.01925 ± 0.002944 mGy/MBq

Q: What about the “human equivalent absorbed dose, Thymus” value ([2]; Adult female (60 kg)) of the same compound?
A: 0.00498 ± 0.000454 mGy/MBq

Q: What about the “human equivalent absorbed dose, Thyroid” value ([2]; Adult female (60 kg)) of the same compound?
A: 0.00297 ± 0.000118 mGy/MBq

Q: What about the “human equivalent absorbed dose, Total Body” value ([2]; Adult female (60 kg)) of the same compound?
A: 0.00366 ± 0.000121 mGy/MBq

Q: What about the “human equivalent absorbed dose, Urinary Bladder Wall” value ([2]; Adult female (60 kg)) of the same compound?
A: 0.00288 ± 0.000114 mGy/MBq

Q: And the “human equivalent absorbed dose, Uterus” value ([2]; Adult female (60 kg))?
A: 0.00284 ± 0.000085 mGy/MBq

Q: What about the “Effective Dose (whole-body)” value ([2]; Adult male (73 kg)) of the same compound?
A: 0.0067±0.002 mSv/MBq and 0.00673 ± 0.002757 mSv/MBq

Q: What about the “human equivalent absorbed dose, Adrenals” value ([2]; Adult male (73 kg)) of the same compound?
A: 0.00533 ± 0.000748 mGy/MBq

Q: What about the “human equivalent absorbed dose, Brain” value ([2]; Adult male (73 kg)) of the same compound?
A: 0.0014 ± 0.000022 mGy/MBq

Q: And the “human equivalent absorbed dose, Esophagus” value ([2]; Adult male (73 kg))?
A: 0.00831 ± 0.004249 mGy/MBq

Q: And the “human equivalent absorbed dose, Eyes” value ([2]; Adult male (73 kg))?
A: 0.00194 ± 0.000092 mGy/MBq

Q: And the “human equivalent absorbed dose, Gallbladder Wall” value ([2]; Adult male (73 kg))?
A: 0.00602 ± 0.000876 mGy/MBq

Q: And the “human equivalent absorbed dose, Heart Wall” value ([2]; Adult male (73 kg))?
A: 0.06753 ± 0.05072 mGy/MBq

Q: And the “human equivalent absorbed dose, Kidneys” value ([2]; Adult male (73 kg))?
A: 0.00714 ± 0.000174 mGy/MBq

Q: And the “human equivalent absorbed dose, Left colon” value ([2]; Adult male (73 kg))?
A: 0.00374 ± 0.000769 mGy/MBq

Q: What about the “human equivalent absorbed dose, Liver” value ([2]; Adult male (73 kg)) of the same compound?
A: 0.01568 ± 0.001377 mGy/MBq

Q: What about the “human equivalent absorbed dose, Lungs” value ([2]; Adult male (73 kg)) of the same compound?
A: 0.0135 ± 0.01113 mGy/MBq

Q: What about the “human equivalent absorbed dose, Osteogenic Cells” value ([2]; Adult male (73 kg)) of the same compound?
A: 0.00223 ± 0.000391 mGy/MBq

Q: And the “human equivalent absorbed dose, Pancreas” value ([2]; Adult male (73 kg))?
A: 0.00665 ± 0.002374 mGy/MBq

Q: And the “human equivalent absorbed dose, Prostate” value ([2]; Adult male (73 kg))?
A: 0.0025 ± 0.000105 mGy/MBq

Q: What about the “human equivalent absorbed dose, Rectum” value ([2]; Adult male (73 kg)) of the same compound?
A: 0.00249 ± 0.000093 mGy/MBq

Q: And the “human equivalent absorbed dose, Red Marrow” value ([2]; Adult male (73 kg))?
A: 0.0031 ± 0.000771 mGy/MBq

Q: And the “human equivalent absorbed dose, Right colon” value ([2]; Adult male (73 kg))?
A: 0.00367 ± 0.000548 mGy/MBq

Q: And the “human equivalent absorbed dose, Salivary Glands” value ([2]; Adult male (73 kg))?
A: 0.00226 ± 0.000156 mGy/MBq

Q: What about the “human equivalent absorbed dose, Small Intestine” value ([2]; Adult male (73 kg)) of the same compound?
A: 0.00325 ± 0.000446 mGy/MBq

Q: And the “human equivalent absorbed dose, Spleen” value ([2]; Adult male (73 kg))?
A: 0.00378 ± 0.000828 mGy/MBq

Q: What about the “human equivalent absorbed dose, Stomach Wall” value ([2]; Adult male (73 kg)) of the same compound?
A: 0.01628 ± 0.005962 mGy/MBq

Q: And the “human equivalent absorbed dose, Testes” value ([2]; Adult male (73 kg))?
A: 0.00204 ± 0.000046 mGy/MBq

Q: And the “human equivalent absorbed dose, Thymus” value ([2]; Adult male (73 kg))?
A: 0.01004 ± 0.005999 mGy/MBq

Q: What about the “human equivalent absorbed dose, Thyroid” value ([2]; Adult male (73 kg)) of the same compound?
A: 0.00355 ± 0.00107 mGy/MBq

Q: And the “human equivalent absorbed dose, Total Body” value ([2]; Adult male (73 kg))?
A: 0.00355 ± 0.000856 mGy/MBq

Q: What about the “human equivalent absorbed dose, Urinary Bladder Wall” value ([2]; Adult male (73 kg)) of the same compound?
A: 0.00247 ± 0.000136 mGy/MBq

Q: With COc1cccc2c1-c1ccc3c(c1C(Cc1ccc(F)cc1)O2)C(C)=CC(C)(C)N3 (racemic) [YJH08, 5-(4-fluorobenzyl)-10-methoxy-2,2,4-trimethyl-2,5-dihydro-1H-chromeno[3,4-f]quinoline] as the compound, how does the Kd (ER) read?
A: 19 µM

— patent publication US20220280661A1, “GLUCOCORTICOID RECEPTOR RADIOLIGANDS AND METHODS FOR THEIR PREPARATION AND USE” (The Regents of the University of California, priority 2019, published 2022)
